In data set [1] the test system is HeLa cells stably expressing dual-luciferase (HeLa-dluc). Description: in vitro knockdown activity, dual-luciferase assay. Type of data set: cell-based. The procedure: Hemolysis activity, in vitro knockdown activity, and in vivo F7 knockdown activity, which are indicators of endosome escape activity, were measured. Regarding the hemolysis activity, mouse erythrocytes and LNPs were mixed in a buffer solution adjusted to pH 6.5, the mixture was incubated at 37° C. for 30 minutes and then centrifuged, and an absorbance of the supernatant at 545 nm was measured. Hemolysis efficiency of each sample was calculated by respectively using a sample to which LNPs were not added and a sample to which Triton X-100 having a final concentration of 0.5% was added, as a negative control and a positive control. Regarding the in vitro knockdown activity, LNPs loaded with siRNA against luciferase were added to HeLa cells stably expressing dual-luciferase (HeLa-dluc) at various concentrations, and knockdown efficiency was calculated 24 hours after the addition by dual-luciferase assay. […] Regarding the in vivo F7 knockdown activity, 0.1 mg siRNA/kg of LNPs loaded with siRNA against F7 were intravenously administered to an ICR mouse (4 weeks old, female), and F7 enzyme activity in plasma was measured 24 hours after the administration. Each activity against pKa was plotted (FIG. 3).
The influence of hydrophobic scaffolds on siRNA introduction activity of small LNPs with an average particle diameter of about 35 nm was examined. […]

Data set [2] in a line: cationic lipid content in liver and spleen by LC/MS. The conditions noted are these: 1 mg siRNA/kg of LNP i.v., ICR mice; until 72 hours. Format: in vivo, mouse.
Experimental: 1 mg siRNA/kg of Each LNP was intravenously administered to ICR mice (4 weeks old, female), the liver and spleen were recovered over time, and each cationic lipid was quantitatively determined by LC/MS.

Compound `CCCCC/C=C\C/C=C\CCCCCCCCC(O)(CCCCCCCC/C=C\C/C=C\CCCCC)CCCCOC(=O)C1CCN(C)CC1` [CL15A, (14Z,17Z)-5-Hydroxy-5-((9Z,12Z)-octadeca-9,12-dien-1-yl)tricosa-14,17-dien-1-yl 1-methylpiperidine-4-carboxylate] had a luciferase knockdown efficiency in data set [1] (30 nM siRNA, small LNPs, average particle diameter about 35 nm, HeLa-dluc) of no more than 30%.
Regarding `CCCCCCCC/C=C\CCCCCCCC(=O)OCCCCCCC(O)(CCCCCCOC(=O)CCCCCCC/C=C\CCCCCCCC)CCCCOC(=O)C1CCN(C)CC1` [CL15H6, 7-Hydroxy 7-(4-((1-methylpiperidine-4-carbonyl)oxy)butyl)tridecane-1,13-diyl dioleate], the “in vitro knockdown activity” value in data set [1] (LNPs loaded with siRNA against luciferase, 24 hours, compared with CL15A) is recorded as “about three times higher activity than that of CL15A”.
For `CCCCC/C=C\C/C=C\CCCCCCCCOC1(OCCCCCCCC/C=C\C/C=C\CCCCC)CCN(C)CC1` [YSK05], the “tissue content of cationic lipid in liver and spleen over time” value in data set [2] is reported as “almost constant until 72 hours after the administration”.

The values above are taken from US11517528B2, “Lipid membrane structure for delivery into siRNA cell” (NATIONAL UNIVERSITY CORPORATION HOKKAIDO UNIVERSITY, priority 2017, dated 2022).
